Patent US20220409617A1, “Drug Formulations and Methods of Treatment for Metabolic Disorders” (The Regents of the University of California, priority 2019, published 2022)

Legend:
[1] = tested on: ob/ob mice; assay: Leptin-deficient ob/ob mice: food intake, body weight, OGTT; format: in vivo, mouse
Protocol: To more rigorously assess the role of leptin in the anti-obesogenic effects of sphingolipid-like compound 893, the response of leptin-deficient ob/ob mice to sphingolipid-like compound 893 was measured. As expected, ob/ob mice were hyperphagic and became obese on the standard chow diet provided by University Lab Animal Resources (16% kcal from fat). Ob/ob animals were used in experiments once they attained an equivalent body weight to C57BL/6J mice fed the HFD for 24 weeks (FIG. 36).
Mice were fasted for 6 h prior to blood glucose testing at ZT10. When sphingolipid-like compound 893 treatment was combined with an OGTT, mice were treated at ZT6. Once baseline fasting blood glucose was determined using a handheld blood glucose meter (Prodigy Diabetes Care, Charlotte, N.C.) and a drop of blood collected from a tail vein nick, mice were gavaged with an oral glucose solution (20% w/v in water, 2 g/kg bodyweight) and blood glucose measured in a drop of tail vein blood at 0, 15, 30, 60 and 120 min. The area under the curve was determined using Graphpad Prism software.
Mice were singly housed and allowed to acclimate for 72 h before food intake was monitored. Food consumption was determined by monitoring the weight of food in the hopper. Initial food and body weight measurements were taken at ZT9 and final measurements were taken 16 h later to capture the active period where most consumption occurred. Home cage feeding studies were performed with C57BL/6J mice maintained on a HFD for 24 weeks (33 weeks of age), or ob/ob mice at 8 weeks of age. Mice received vehicle or 120 mg/kg sphingolipid-like compound 893 by gavage at ZT8.5. For experiments involving leptin, 18 week old, SD fed (16% kcal from fat, 2020×, Envigo) C57BL/6J mice received vehicle or 120 mg/kg sphingolipid-like compound 893 by gavage at ZT8.5. At ZT11.5, vehicle (20 mM Tris-Cl, pH 8.0) or 2 mg/kg recombinant mouse leptin (498-OB, R&D Systems, Minneapolis, Minn.) was delivered by intraperitoneal injection. The same 8 mice were used for all treatments following a 48 h washout period, and treatments were administered in the following order: vehicle, sphingolipid-like compound 893, leptin, and leptin+sphingolipid-like compound 893. All data collected from one mouse was excluded due to inadvertent pharyngeal administration during gavage reducing the n from 8 to 7 (FIG. 5a-d). […] One ob/ob mouse died during Echo MRI for unknown reasons after 6 d of treatment with sphingolipid-like compound 893; data from this mouse was analyzed prior to death.

[2] = tested on: KRAS G12D knock-in MEFs; assay: KRAS-mediated mitochondrial fission in KRAS G12D knock-in MEFs; format: cell-based, mouse; settings: 893 5 μM
Protocol: 3T3-L1 cells were maintained in DMEM with 10% FBS and 1% penicillin-streptomycin until induced to differentiate. 3T3-L1 pre-adipocytes were differentiated as described in (M. P. Valley, et al., Anal. Biochem. 505: 43-50, 2016, the disclosure of which is incorporated herein by reference) with slight modifications. Briefly, pre-adipocytes were grown to confluence. After 2 d, cells were induced with maintenance media containing 500 μM IBMX (15879, Sigma-Aldrich, St. Louis, Mo.), 1 μM dexamethasone (D4902, Sigma-Aldrich), 5 μg/mL bovine insulin (10516, Sigma-Aldrich), and 5 μM troglitazone (50-115-0786, ApexBio). Media was changed every 2-3 d for 7 d. On day 7 post-induction, media was changed to maintenance media+5 μg/mL bovine insulin. On day 9 post-induction, media was changed to maintenance media. Mature adipocytes were used 12-14 d post-induction for all experiments. […]
MEFs were washed twice with PBS and fixed with 4% paraformaldehyde for 10 min at RT. […] NADH/NADPH autofluorescence was detected with 740 nm excitation and 450±50 nm detectors using a Mai Tai two-photon laser. Fluorescence microscopy was performed on a Zeiss LSM 780 confocal using a 63× oil objective with a […] numerical aperture (NA) or using a Nikon TE2000-S inverted epifluorescence microscope with a 100× oil objective (1.3 NA) and a Photometrics CoolSNAP ES2 monochrome CCD camera. […]

[3] = tested on: AKT; settings: cited from earlier work

CCCCCCCCc1ccc([C@H]2CCN[C@@H]2CO)cc1.Cl [compound 893]
Cumulative food intake, repeated dosing ([1]; 120 mg/kg Mon/Wed/Fri for 2 weeks): only a modest decrease in cumulative food intake | Fasting hyperglycemia and glucose tolerance ([1]; 120 mg/kg Mon/Wed/Fri, OGTT at 14 d): failed to correct fasting hyperglycemia or restore glucose tolerance | Food intake after a single dose ([1]; single oral dose 120 mg/kg): decreased food intake | Body weight gain ([1]; six doses of 120 mg/kg over 2 weeks): 5% | Correction of KRAS-mediated mitochondrial fission in KRAS G12D MEFs [2]: rapidly corrected KRAS-mediated mitochondrial fission | Effect on AKT activity [3]: does not reduce AKT activity
